Source: patent US20020005386A1, “Water based oil dispersant” (Polychemical Corporation, priority 1999, published 2002)

Assays:
Mysidopsis bahia = assay: Dispersant toxicity testing, 48 hour LC50; conditions: in vivo
Method: Dispersant toxicity testing was performed by Coastal Bioanalysts.
This toxicity data was obtained using the concentrated product.

[1] = Surfactant screening test, visual emulsification of Prudhoe Bay Crude in river (sea) water; conditions: 1st set: pure surfactant, 10 ml added to 100 microliter PBC in 120 ml water; shaken 50 times, stand 10 min
Method: 120 ml of the river (sea) water is taken in a 130 ml bottle. Add 100 micro liter(μl) of Prudhoe Bay Crude to the bottle. Add […] of the pure test surfactant. The ratio of the surfactant to oil is 1:10, as per the spec. (the only difference is instead of 100 μl of the 1:10 mixture, the volume added was 110 μl) the mix was shaken vigorously 50 times and allowed to stand 10 min. to evaluate the effectiveness of the system and compare it to COREXIT 9500 at the same ratio.
The first set was with pure surfactants, the 2nd set was with two surfactants combination with 10 μl, in a 1:3 ratio and the 3rd was with a 3 or more surfactants system with 1:3 ratio but 10 μl, 20 μl, or 30 μl addition. The results are tabulated below:
10 μl added unless otherwise stated.
A combination of the above selected surfactants was conceived and formulations with the following variations were evaluated: […]

Row | SMILES | LC50 of the Control Toxicant, M. bahia (Mysidopsis bahia) | APPEARANCE STABILITY OF EMULSION [1]
1 | CCCCCCCCCCCCOS(=O)(=O)[O-].[Na+] [Dss] | The Control Toxicant (Dss): M. bahia 9.82 ppm | 
2 | CCCCCCCC/C=C\CCCCCCCC(=O)OCC(O)CO (centres unmarked) [GMO, Glyceryl mono oleate] |  | Not good
